Test system: Male NMRI mice
Experiment: phenylquinone-induced writhing in mice (analgesic testing by writhing test)
Type: in vivo
Details: 10 mg/kg i.v., phenylquinone i.p. 10 minutes after compound, writhing counted 5–20 minutes after phenylquinone
Method: The investigation into the analgesic efficacy of the compounds according to the invention was performed by phenylquinone-induced writhing in mice, modified after I. C. Hendershot, J. Forsaith, J. Pharmacol. Exp. There. 125, 237240 (1959). The corresponding literature description is hereby introduced as a reference and is deemed to be part of the disclosure.
Male NMRI mice weighing from 25–30 g were used for this purpose. Groups of 10 animals per compound dose received, 10 minutes after intravenous administration of the compounds tested, 0.3 ml/mouse of a 0.02% aqueous solution of phenylquinone (phenylbenzoquinone, Sigma, Deisenhofen; solution prepared with addition of 5% of ethanol and stored in a water bath at 45° C.) administered intraperitoneally. The animals were then placed individually in observation cages. A push button counter was used to record the number of pain-induced stretching movements (writhing reactions=straightening of the torso with stretching of the rear extremities) for 5–20 minutes after phenylquinone administration. The control was provided by animals which received only physiological common salt solution with phenylquinone.
The compounds according to the invention were tested at the standard dosage of 10 mg/kg. The percentage inhibition (% inhibition) of the writhing reactions by a compound was calculated according to the following formula: […]
Analgesic Testing by Writhing Test in Mice
The in-depth investigation into the analgesic efficacy of the compounds according to the invention was performed using phenylquinone-induced writhing in mice, as described above.

| Compound | % inhibition of writhing reactions [%] |
| --- | --- |
| 5-Chloro-3-{[3′-(N,N-dimethylaminomethyl)-4′-hydroxy-4′-(3″-methoxyphenyl)-cyclohexylamino]-methyl}-1H-indole 2-carboxylic acid ester [Compound 1] | 48 |
| CCOC(=O)c1[nH]c2cc(Cl)cc(Cl)c2c1CNC1CCC(O)(c2cccc(OC)c2)C(CN(C)C)C1 (stereo not shown) [Compound 2, 4,6-Dichloro-3-{[3′-(N,N-dimethylaminomethyl)-4′-hydroxy-4′-(3″-methoxyphenyl)-cyclohexylamino]-methyl}-1H-indole 2-carboxylic acid ethyl ester] | 97 |
| COc1cccc(C2(O)CCC(NCc3c(C(=O)O)[nH]c4cc(Cl)cc(Cl)c34)CC2CN(C)C)c1 (stereo not shown) [Compound 3, 4,6-Dichloro-3-{[3′-(N,N-dimethylaminomethyl)-4′-hydroxy-4′-(3″-methoxyphenyl)-cyclohexylamino]-methyl}-1H-indole 2-carboxylic acid] | 72 |
| CCOC(=O)c1c(CNC2CCC(O)(c3cccc(OC)c3)C(CN(C)C)C2)c2c(Cl)cc(Cl)cc2n1C(=O)OC(C)(C)C (stereo not shown) [Compound 4] | 100 |

Source: patent US7217729B2, “Substituted indoles, process for the production thereof and use thereof for combatting pain” (Grunenthal GmbH, priority 2001, dated 2007)
